Earlier results on two compounds are cited in patent US20230048954A1, “COMPOSITIONS FOR REMOVING NECROTIC OR INFECTED TISSUES FROM BODY SURFACE LESIONS” (priority 2020, published 2023).

The conditions of the series: at a temperature of 25° C.

The pKa is the pH at which an ionisable group is half protonated. Take `CCCS(=O)(=O)O` [1-Propanesulfonic acid]: the pKa is on record as −0.86. Regarding `O=[N+]([O-])O` [Nitric], the pKa is listed as −1.4.
